Assay results taken from patent US8557830B2, “RAF kinase modulators and methods of use” (Amgen Inc., priority 2007, dated 2013).

Columns and labels:
recombinant HuBraf V600E = recombinant HuBraf V600E (Homo sapiens, UniProt P15056, V600E); assay: B-raf Homogenous Time Resolved Fluorescent (HTRF) kinase assay; type: biochemical; settings: Table I; human mutant B-raf V600E, substrate MEK1, 10 uM ATP; read-out: HTRF Enzyme assay Data IC50
Procedure: B-raf-Homogenous Time Resolved Fluorescent (HTRF) Kinase Assay
The final concentration of the kinase reaction buffer is 50 mM Tris-HCL pH 7.5, 10 mM MgCl2, 0.5% glucose, 0.5 mM DTT, 0.01% BSA. […] The detection reaction proceeds for one hour and is read on a RubyStar (BMG Labtech) counter. IC50s for the test compounds are generated using Excel-XLfit software.

V600E mutant B-raf = target: T1, V600E mutant B-raf (Homo sapiens, UniProt P15056, V600E); assay: B-raf cell-based assay (ratio of phospho-ERK1/2 to total ERK1/2 in A375 cells); settings: Table I; A375 human melanoma cells, P-ERK/total ERK
T1 construct: A375 cells, a human melanoma cell line having the V600E mutant B-raf is used in this assay; endogenous in cells; host or cells: A375 human melanoma cells
T1 sequence (P15056 whole entry V600E): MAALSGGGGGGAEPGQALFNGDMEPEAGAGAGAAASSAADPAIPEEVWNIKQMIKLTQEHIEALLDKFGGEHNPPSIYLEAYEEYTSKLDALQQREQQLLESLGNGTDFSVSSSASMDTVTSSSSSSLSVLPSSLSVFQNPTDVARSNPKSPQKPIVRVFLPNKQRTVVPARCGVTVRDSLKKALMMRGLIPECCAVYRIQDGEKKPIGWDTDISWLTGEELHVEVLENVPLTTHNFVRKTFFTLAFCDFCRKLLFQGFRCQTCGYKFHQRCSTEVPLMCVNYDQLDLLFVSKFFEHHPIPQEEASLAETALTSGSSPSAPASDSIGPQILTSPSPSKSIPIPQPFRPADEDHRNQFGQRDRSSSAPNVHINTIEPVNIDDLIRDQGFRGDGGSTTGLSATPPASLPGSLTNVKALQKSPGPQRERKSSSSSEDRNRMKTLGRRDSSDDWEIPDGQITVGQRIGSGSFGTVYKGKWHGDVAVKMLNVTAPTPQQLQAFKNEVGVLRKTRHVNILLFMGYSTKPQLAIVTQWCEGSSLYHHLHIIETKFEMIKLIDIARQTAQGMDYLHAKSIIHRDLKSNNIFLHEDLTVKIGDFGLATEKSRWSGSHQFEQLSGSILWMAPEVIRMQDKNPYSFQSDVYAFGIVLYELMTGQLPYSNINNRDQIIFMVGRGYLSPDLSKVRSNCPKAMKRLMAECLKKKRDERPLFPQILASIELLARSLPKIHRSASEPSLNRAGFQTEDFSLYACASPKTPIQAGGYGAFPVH
Procedure: A cell-based assay was optimized to assay the ability of compounds to inhibit B-raf activity in a whole cell context. […] The cell-based assay quantifies the ratio of phospho-ERK1/2 to total ERK1/2 and can thereby assay the cellular inhibition of B-raf kinase activity. A375 cells are plated into 96 well plates and grown to confluence. The cells are then changed into starve media (DMEM/0.1% BSA) for 60 minutes. Compounds in DMSO dose curves are then diluted in starve media and added to cells. […] After a 60 minute incubation the cells are fixed for 20 minutes at RT in 4% formaldehyde with 0.1% Triton X-100, protease and phosphatase inhibitors in PBS. The cells are washed four times in PBS then blocked for 60 minutes using a one to one mix of Odyssey blocking buffer (Li-Cor Biosciences, Inc) and PBS. Primary antibodies (rabbit anti-phospho p42/p44 MAPK (P-ERK1/2) from Cell Signaling Technology and mouse anti-ERK2 from Santa Cruz Biotechnology) are diluted in blocking buffer, added to the cells and incubated overnight at 4° C. The cells are then washed four times in PBS/0.1% Tween-20. Secondary antibodies (anti-mouse IRDye 800CW from Rockland, Inc and anti-rabbit AlexaFlour680 from Molecular Probes) are diluted in blocking buffer/0.5% Tween and incubated on cells for 60 minutes. After 4 washes in PBS/0.1% Tween-20 the microplate is scanned on an Odyssey Infrared Imager (Li-Cor Bioscience) which can read the signal given by the two secondary antibodies on their respective channels. The ratio of P-ERK/total ERK is determined and IC50s generated using Excel-XLfit software.

Chain of recombinant HuBraf V600E (P15056 whole entry V600E): as above

| SMILES | IC50 (recombinant HuBraf V600E) | IC50 (V600E mutant B-raf) |
| --- | --- | --- |
| Cc1ccc2c(Nc3ccc(C#N)cc3)nccc2c1Nc1ncccc1-c1ncnc2[nH]ccc12 [Example 40, 4-((6-methyl-5-((3-(7H-pyrrolo[2,3-d]pyrimidin-4-yl)-2-pyridinyl)amino)-1-isoquinolinyl)amino)benzonitrile] | 3 nM | 23 nM |
| Cc1ccc2c(Nc3ccc4c(c3)C(F)(F)C(=O)N4C)nccc2c1Nc1ncccc1-c1ncnc2[nH]ccc12 [Example 45, 3,3-difluoro-1-methyl-5-((6-methyl-5-((3-(7H-pyrrolo[2,3-d]pyrimidin-4-yl)-2-pyridinyl)amino)-1-isoquinolinyl)amino)-1,3-dihydro-2H-indol-2-one] | 8 nM | 15 nM |
| Cc1ccc2c(Nc3ccc4c(c3)NC(=O)[C@@H]4C)nccc2c1Nc1ncccc1-c1ncnc2[nH]ccc12 [Example 47, (3R)-3-methyl-6-((6-methyl-5-((3-(7H-pyrrolo[2,3-d]pyrimidin-4-yl)-2-pyridinyl)amino)-1-isoquinolinyl)amino)-1,3-dihydro-2H-indol-2-one] | 10 nM | 11 nM |
| Cc1ccc2c(Nc3ccc4c(c3)NC(=O)C4)nccc2c1Nc1ncccc1-c1ncnc2[nH]ccc12 [Example 50, 6-((6-methyl-5-((3-(7H-pyrrolo[2,3-d]pyrimidin-4-yl)-2-pyridinyl)amino)-1-isoquinolinyl)amino)-1,3-dihydro-2H-indol-2-one] | 12 nM | 45 nM |
| Cc1ccc2c(Nc3ccc4c(C)cc(=O)[nH]c4c3)nccc2c1Nc1ncccc1-c1ncnc2[nH]ccc12 [Example 52, 4-methyl-7-((6-methyl-5-((3-(7H-pyrrolo[2,3-d]pyrimidin-4-yl)-2-pyridinyl)amino)-1-isoquinolinyl)amino)-2(1H)-quinolinone] | 7 nM | 7 nM |
| Cc1ccc2c(Nc3ccc(C(F)(F)F)cc3)nccc2c1Nc1ncccc1-c1ncnc2[nH]ccc12 [Example 53, 6-methyl-N-5-(3-(7H-pyrrolo[2,3-d]pyrimidin-4-yl)-2-pyridinyl)-N-1-(4-(trifluoromethyl)phenyl)-1,5-isoquinolinediamine] | 47 nM | 52 nM |
| Cc1ccc(C(F)(F)F)cc1Nc1nccc2c(Nc3nc(Cl)ncc3-c3ncnc4[nH]ccc34)c(C)ccc12 [Example 55, N-5-(2-chloro-5-(7H-pyrrolo[2,3-d]pyrimidin-4-yl)-4-pyrimidinyl)-6-methyl-N-1-(2-methyl-5-(trifluoromethyl)phenyl)-1,5-isoquinolinediamine] | 15 nM | 86 nM |
| Cc1ccc2c(Nc3cccc(C(F)(F)F)c3)nccc2c1Nc1ncccc1-c1ncnc2[nH]cnc12 [Example 58, 6-methyl-N-5-(3-(9H-purin-6-yl)-2-pyridinyl)-N-1-(3-(trifluoromethyl)phenyl)-1,5-isoquinolinediamine] | 6 nM | 6 nM |
| Cc1ccc2c(Nc3ccc(C#N)cc3)ncnc2c1Nc1ncccc1-c1ncnc2[nH]ccc12 [Example 60, 4-((7-methyl-8-((3-(7H-pyrrolo[2,3-d]pyrimidin-4-yl)-2-pyridinyl)amino)-4-quinazolinyl)amino)benzonitrile] | 10 nM | 233 nM |
| Cc1ccc2c(Nc3ccc(C#N)cc3)ncnc2c1Nc1ncccc1-c1ncnc2[nH]cnc12 [Example 61, 4-((7-methyl-8-((3-(9H-purin-6-yl)-2-pyridinyl)amino)-4-quinazolinyl)amino)benzonitrile] | 2 nM | 103 nM |
| Cc1ccc2c(Nc3ccc4c(c3)OC(F)(F)O4)nccc2c1Nc1ncccc1-c1ncnc2cc[nH]c12 [Example 64, N-1-(2,2-difluoro-1,3-benzodioxol-5-yl)-6-methyl-N-5-(3-(5H-pyrrolo[3,2-d]pyrimidin-4-yl)-2-pyridinyl)-1,5-isoquinolinediamine] | 302 nM | 111 nM |
| Cc1ccc2c(Nc3cccc(C(F)(F)F)c3)nccc2c1Nc1ncccc1-c1ncnc2[nH]ncc12 [Example 65, 6-methyl-N-5-(3-(1H-pyrazolo[3,4-d]pyrimidin-4-yl)-2-pyridinyl)-N-1-(3-(trifluoromethyl)phenyl)-1,5-isoquinolinediamine] | 8 nM | 8 nM |

Second part, the compound after the results:

| IC50 (recombinant HuBraf V600E) | IC50 (V600E mutant B-raf) | SMILES |
| --- | --- | --- |
| 35 nM | 107 nM | Cc1ccc(OC(F)(F)F)cc1Nc1nccc2c(Nc3ncccc3-c3ncnc4[nH]ccc34)c(C)ccc12 [Example 41, 6-methyl-N-1-(2-methyl-5-((trifluoromethyl)oxy)phenyl)-N-5-(3-(7H-pyrrolo[2,3-d]pyrimidin-4-yl)-2-pyridinyl)-1,5-isoquinolinediamine] |
| 3 nM | 5 nM | Cc1ccc2c(Nc3ccc(Cl)cc3)nccc2c1Nc1ncccc1-c1ncnc2[nH]ccc12 [Example 42, N-1-(4-chlorophenyl)-6-methyl-N-5-(3-(7H-pyrrolo[2,3-d]pyrimidin-4-yl)-2-pyridinyl)-1,5-isoquinolinediamine] |
| 3 nM | 10 nM | C#Cc1cccc(Nc2nccc3c(Nc4ncccc4-c4ncnc5[nH]ccc45)c(C)ccc23)c1 [Example 43, N-1-(3-ethynylphenyl)-6-methyl-N~5~-(3-(7H-pyrrolo[2,3-d]pyrimidin-4-yl)-2-pyridinyl)-1,5-isoquinolinediamine] |
| 13 nM | 25 nM | Cc1ccc2c(Nc3ccc4c(c3)OC(F)(F)O4)nccc2c1Nc1ncccc1-c1ncnc2[nH]ccc12 [Example 44, N-1-(2,2-difluoro-1,3-benzodioxol-5-yl)-6-methyl-N-5-(3-(7H-pyrrolo[2,3-d]pyrimidin-4-yl)-2-pyridinyl)-1,5-isoquinolinediamine] |
| 15 nM | 25 nM | Cc1ccc2c(Nc3ccc4c(c3)C(F)(F)C(=O)N4)nccc2c1Nc1ncccc1-c1ncnc2[nH]ccc12 [Example 46, 3,3-difluoro-5-((6-methyl-5-((3-(7H-pyrrolo[2,3-d]pyrimidin-4-yl)-2-pyridinyl)amino)-1-isoquinolinyl)amino)-1,3-dihydro-2H-indol-2-one] |
| 11 nM | 15 nM | Cc1ccc2c(Nc3ccc4snc(C)c4c3)nccc2c1Nc1ncccc1-c1ncnc2[nH]ccc12 [Example 48, 6-methyl-N-1-(3-methyl-1,2-benzisothiazol-5-yl)-N-5-(3-(7H-pyrrolo[2,3-d]pyrimidin-4-yl)-2-pyridinyl)-1,5-isoquinolinediamine] |
| 7 nM | 10 nM | Cc1ccc2c(Nc3ccc4ncsc4c3)nccc2c1Nc1ncccc1-c1ncnc2[nH]ccc12 [Example 49, N-1-1,3-benzothiazol-6-yl-6-methyl-N-5-(3-(7H-pyrrolo[2,3-d]pyrimidin-4-yl)-2-pyridinyl)-1,5-isoquinolinediamine] |
| 25 nM | 12 nM | Cc1ccc2c(Nc3ccc4c(c3)NC(=O)C4(C)C)nccc2c1Nc1ncccc1-c1ncnc2[nH]ccc12 [Example 51, 3,3-dimethyl-6-((6-methyl-5-((3-(7H-pyrrolo[2,3-d]pyrimidin-4-yl)-2-pyridinyl)amino)-1-isoquinolinyl)amino)-1,3-dihydro-2H-indol-2-one] |
| 205 nM | 99 nM | Cc1ccc2c(Nc3ccc4c(c3)C(F)(F)OC(F)(F)O4)nccc2c1Nc1ncccc1-c1ncnc2[nH]ccc12 [Example 54, 6-methyl-N-5-(3-(7H-pyrrolo[2,3-d]pyrimidin-4-yl)-2-pyridinyl)-N-1-(2,2,4,4-tetrafluoro-4H-1,3-benzodioxin-6-yl)-1,5-isoquinolinediamine] |
| 0.6 nM | 4 nM | Cc1ccc2c(Nc3ccc(C#N)cc3)nccc2c1Nc1ncccc1-c1ncnc2[nH]cnc12 [Example 57, 4-((6-methyl-5-((3-(9H-purin-6-yl)-2-pyridinyl)amino)-1-isoquinolinyl)amino)benzonitrile] |
| 6 nM | 6 nM | Cc1ccc2c(Nc3ccc4c(c3)OC(F)(F)O4)nccc2c1Nc1ncccc1-c1ncnc2[nH]cnc12 [Example 59, N-1-(2,2-difluoro-1,3-benzodioxol-5-yl)-6-methyl-N-5-(3-(9H-purin-6-yl)-2-pyridinyl)-1,5-isoquinolinediamine] |
| 20 nM | 282 nM | Cc1ccc2c(Nc3ccc(Cl)cc3)nccc2c1Nc1ncccc1-c1ncnc2cc[nH]c12 [Example 62, N-1-(4-chlorophenyl)-6-methyl-N-5-(3-(5H-pyrrolo[3,2-d]pyrimidin-4-yl)-2-pyridinyl)-1,5-isoquinolinediamine] |
| 171 nM | 1000 nM | Cc1ccc2c(Nc3ccc(C#N)cc3)nccc2c1Nc1ncccc1-c1ncnc2cc[nH]c12 [Example 63, 4-((6-methyl-5-((3-(5H-pyrrolo[3,2-d]pyrimidin-4-yl)-2-pyridinyl)amino)-1-isoquinolinyl)amino)benzonitrile] |
